The source of these data is US7235366B1 (priority 1993, dated 2007).

The target in one assay is T1, cloned mouse κ receptor (Mus musculus, UniProt P33534).
T1 construct: expressed in transfected cells
Put plainly: biochemical. Format: binding.

The target of a further assay is T2, cloned mouse δ receptor (Mus musculus, UniProt P32300).
T2 construct: expressed in transfected cells
As to the kind of experiment: biochemical. The format is binding.

Another assay deals with T3, cloned rat μ receptor (Rattus norvegicus, UniProt P33535).
T3 construct: expressed in transfected cells; host or cells: COS-7 (transient)
T3 sequence (P33535 whole entry): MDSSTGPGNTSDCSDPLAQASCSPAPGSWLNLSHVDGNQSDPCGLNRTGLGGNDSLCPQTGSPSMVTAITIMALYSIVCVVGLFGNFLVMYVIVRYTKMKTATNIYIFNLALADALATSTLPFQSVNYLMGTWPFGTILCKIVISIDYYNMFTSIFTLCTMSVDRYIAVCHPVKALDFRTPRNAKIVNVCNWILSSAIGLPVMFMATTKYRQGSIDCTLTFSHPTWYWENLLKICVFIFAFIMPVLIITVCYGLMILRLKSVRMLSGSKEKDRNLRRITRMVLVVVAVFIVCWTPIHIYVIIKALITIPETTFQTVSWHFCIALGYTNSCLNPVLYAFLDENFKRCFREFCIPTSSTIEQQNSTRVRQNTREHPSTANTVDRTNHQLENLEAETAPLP
Put plainly: biochemical. Format: binding.

The target in assay [1] is T4, mouse delta opioid receptor aspartate 95 to asparagine mutant (Mus musculus, UniProt P32300, D95N).
T4 construct: expressed in transfected cells; host or cells: COS-7
T4 sequence (P32300 whole entry D95N): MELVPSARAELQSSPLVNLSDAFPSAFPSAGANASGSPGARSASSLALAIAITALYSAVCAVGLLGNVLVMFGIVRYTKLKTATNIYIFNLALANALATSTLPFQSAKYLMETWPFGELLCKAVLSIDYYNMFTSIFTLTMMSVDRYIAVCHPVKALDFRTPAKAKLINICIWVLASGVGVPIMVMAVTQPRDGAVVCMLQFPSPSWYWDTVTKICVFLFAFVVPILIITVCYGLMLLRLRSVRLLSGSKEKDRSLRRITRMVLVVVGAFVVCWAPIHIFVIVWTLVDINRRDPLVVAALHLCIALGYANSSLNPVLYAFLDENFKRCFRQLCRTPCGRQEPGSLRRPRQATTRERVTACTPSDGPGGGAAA
Put plainly: Binding to delta receptor mutant with aspartate 95 converted to asparagine, COS-7 cells.

Another assay deals with κ/δ2eloop chimera. Format: binding.
The target of assay [2] is T5, MOP2 (Mus musculus, UniProt P35377).
T5 construct: expressed in transfected cells; host or cells: COS-7 (transient)
T5 sequence (P35377 whole entry): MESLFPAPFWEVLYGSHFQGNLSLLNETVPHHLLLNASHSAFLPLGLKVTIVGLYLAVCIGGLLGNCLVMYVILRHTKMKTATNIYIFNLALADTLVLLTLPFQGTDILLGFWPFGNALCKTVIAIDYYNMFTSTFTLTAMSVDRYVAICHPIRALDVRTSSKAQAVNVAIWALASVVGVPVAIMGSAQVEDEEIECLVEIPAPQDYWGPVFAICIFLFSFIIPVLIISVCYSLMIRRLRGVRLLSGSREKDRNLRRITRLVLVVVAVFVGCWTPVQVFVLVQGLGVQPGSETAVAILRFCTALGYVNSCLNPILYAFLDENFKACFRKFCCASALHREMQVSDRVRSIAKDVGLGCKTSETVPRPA
The format is cell-based.

In assay [3] the target is T6, wild-type mouse delta opioid receptor (Mus musculus, UniProt P32300).
T6 construct: expressed in transfected cells; host or cells: COS-7 (transient, pCMV6c)
T6 sequence (P32300 whole entry): as the sequence (P32300 whole entry D95N) above, with N95D counted along it
Put plainly: biochemical. Format: binding.

Assay [4] addresses T7, D128N mutant mouse delta opioid receptor (Mus musculus, UniProt P32300, D128N).
T7 construct: expressed in transfected cells; host or cells: COS-7 (transient, pCMV6c)
As to the kind of experiment: biochemical. Format: binding.

Assay [5] has as its target T8, H278N mutant mouse delta opioid receptor (Mus musculus, UniProt P32300, H278N).
T8 construct: expressed in transfected cells; host or cells: COS-7 (transient, pCMV6c)
As to the kind of experiment: biochemical. Format: binding.

The target of assay [6] is T5, MOP2. Format: binding.
In assay [7] the target is kappa 1-74/delta65-372 chimera (Mus musculus, UniProt P32300+P33534, A193I/A281G/D128E/D204G/D206V/DEL208-209/DEL216-217/DEL300-312/E203D/E218S/E297A/F225V/F314L/G197A/G198V/I133A/I135L/I177L/I191V/I194M/I237V/I243T/I250L/I284V/I285V/I294L/I85V/INS221Y/INS293[…]/K200Q/K254R/K274R/L173A/L184V/L196M/L224T/L275M/L295V/M112L/M226T/M90L/N122E/N268S/R263K/S123T/S188G/S192P/S211M/T110S/T247G/T288A/T321A/V108A/V118K/V129L/V201P/V205A/V232L/V239I/V282A/V83G/Y219P/Y313H).
Sequence of kappa 1-74/delta65-372 chimera (P33534+P32300 fused with the stated changes): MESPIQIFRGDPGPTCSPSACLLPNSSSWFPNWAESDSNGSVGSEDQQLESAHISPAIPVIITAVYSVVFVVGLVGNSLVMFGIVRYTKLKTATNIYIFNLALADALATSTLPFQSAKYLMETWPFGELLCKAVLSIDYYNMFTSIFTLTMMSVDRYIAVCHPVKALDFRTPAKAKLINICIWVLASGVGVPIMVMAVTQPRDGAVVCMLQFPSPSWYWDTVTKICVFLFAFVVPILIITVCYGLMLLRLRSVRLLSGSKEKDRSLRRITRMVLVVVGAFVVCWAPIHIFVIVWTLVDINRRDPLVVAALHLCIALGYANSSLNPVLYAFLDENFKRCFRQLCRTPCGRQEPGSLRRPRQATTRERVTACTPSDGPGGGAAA

In assay [8] the target is T9, cloned human μ opioid receptor (Homo sapiens, UniProt P35372).
T9 construct: This fragment includes the entire coding region of the human μ opioid receptor; expressed in transfected cells; host or cells: COS-7 (transient, pcDNA3)
T9 sequence (P35372 whole entry, the tested form may be a part): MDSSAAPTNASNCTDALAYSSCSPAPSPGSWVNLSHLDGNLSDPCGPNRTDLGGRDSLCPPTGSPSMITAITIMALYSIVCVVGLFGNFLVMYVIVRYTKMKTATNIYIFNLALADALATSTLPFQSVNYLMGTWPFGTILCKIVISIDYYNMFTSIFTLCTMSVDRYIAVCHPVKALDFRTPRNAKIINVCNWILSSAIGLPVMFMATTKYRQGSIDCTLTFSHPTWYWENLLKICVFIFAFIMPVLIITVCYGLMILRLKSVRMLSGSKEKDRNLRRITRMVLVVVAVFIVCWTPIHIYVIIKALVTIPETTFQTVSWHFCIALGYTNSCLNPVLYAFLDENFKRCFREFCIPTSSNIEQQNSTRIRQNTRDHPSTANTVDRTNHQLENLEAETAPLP
The format is binding.

Assay [9] addresses T10, cloned rat μ opioid receptor (Rattus norvegicus, UniProt P33535).
T10 construct: expressed in transfected cells; host or cells: COS-7 (transient)
Format: binding.

[10] abbreviates: read-out: Binding potencies (Ki-nM) κ RECEPTOR [^3H] U-69, 593.
The mark [11] stands for this setting: read-out: Binding potencies (Ki-nM) δ RECEPTOR [^3H] naltrindole.
Where [12] appears, read: read-out: Binding potencies (Ki-nM) μ RECEPTOR [^3H] DAMGO.
[13] abbreviates: Binding potencies (Ki-nM) μ RECEPTOR [^3H] DAMGO.

Read-outs that look alike come from different tables or passages of the source. Residues, ends and D or L forms follow the SMILES beside them. Where only a bound is given, the exact number is not on record here.

T7 sequence (P32300 whole entry D128N): as the sequence (P32300 whole entry D95N) above, with N95D, D128N counted along it
T2 sequence (P32300 whole entry): as the sequence (P32300 whole entry D95N) above, with N95D counted along it
T8 sequence (P32300 whole entry H278N): as the sequence (P32300 whole entry D95N) above, with N95D, H278N counted along it
T1 sequence (P33534 whole entry): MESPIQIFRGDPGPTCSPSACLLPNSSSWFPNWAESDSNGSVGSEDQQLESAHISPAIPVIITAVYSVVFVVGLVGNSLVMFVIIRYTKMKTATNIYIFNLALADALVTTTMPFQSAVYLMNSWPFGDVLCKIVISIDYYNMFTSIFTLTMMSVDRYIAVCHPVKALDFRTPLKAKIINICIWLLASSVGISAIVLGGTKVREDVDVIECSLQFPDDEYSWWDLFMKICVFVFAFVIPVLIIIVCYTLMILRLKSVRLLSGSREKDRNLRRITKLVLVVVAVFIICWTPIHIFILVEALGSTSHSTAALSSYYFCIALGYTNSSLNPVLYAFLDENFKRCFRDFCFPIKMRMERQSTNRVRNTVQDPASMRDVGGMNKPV
T10 sequence (P33535 whole entry): as the sequence (P33535 whole entry) above

The Ki is the dissociation constant of the complex between target and ligand, obtained from inhibition or displacement. Consider `O=C1/C(=C/c2ccccc2)C[C@@]2(O)[C@H]3Cc4ccc(O)c5c4[C@@]2(CCN3CC2CC2)[C@H]1O5` [BNTX, 7-Benyllidenenaltrexone], for which the Ki at cloned mouse κ receptor (setting [10]) amounted to 55 nM; at cloned mouse δ receptor (setting [11]), 0.66 nM; on cloned rat μ receptor (setting [12]), 18 nM. In [1], the “Affinity of aspartate 95 mutant and wild-type delta receptors compared” value is recorded as “similar”.

As to `C[C@@H](O)[C@H](NC(=O)[C@H]1NC(=O)[C@H]([C@@H](C)O)NC(=O)[C@H](CCCN)NC(=O)[C@@H](Cc2c[nH]c3ccccc23)NC(=O)[C@H](Cc2ccc(O)cc2)NC(=O)[C@@H](NC(=O)[C@H](N)Cc2ccccc2)CSSC1(C)C)C(N)=O` [CTOP, D-Phe-Cys-Tyr-D-Trp-Orn-Thr-Pen-Thr-NH2], the Ki at cloned mouse κ receptor and on cloned mouse δ receptor was over 1000 nM throughout.

Consider `CC(C)C[C@H](NC(=O)[C@H](Cc1ccccc1)NC(=O)CNC(=O)[C@@H](CO)NC(=O)[C@@H](N)Cc1ccc(O)cc1)C(=O)N[C@H](C(=O)O)[C@@H](C)O` [DSLET, [D-Ser^2, Leu^5]enkephalin-Thr^6], for which the affinity on cloned rat μ receptor (setting [13]) corresponds to a Ki of 39 nM.

As for `CN1CC[C@@]23CCCC[C@@H]2[C@@H]1Cc1ccc(O)cc13` [Dextrorphan], the Ki at cloned mouse κ receptor and at cloned mouse δ receptor was over 1000 nM in each case.

As for `CC[C@H](C)[C@H](NC(=O)[C@H](CCCNC(=N)N)NC(=O)[C@H](CCCNC(=N)N)NC(=O)[C@H](CC(C)C)NC(=O)[C@H](Cc1ccccc1)NC(=O)CNC(=O)CNC(=O)[C@@H](N)Cc1ccc(O)cc1)C(=O)N[C@@H](CCCNC(=N)N)C(=O)N1CCC[C@H]1C(=O)N[C@@H](CCCCN)C(=O)N[C@@H](CC(C)C)C(=O)N[C@@H](CCCCN)C(=O)N[C@@H](Cc1c[nH]c2ccccc12)C(=O)N[C@@H](CC(=O)O)C(=O)N[C@@H](CC(N)=O)C(=O)N[C@@H](CCC(N)=O)C(=O)O` [Dynorphin], the “Binding to the κ/δ2eloop chimera” value in the assay with κ/δ2eloop chimera is reported as “did not bind”.

As to `CC[C@]12CCN(CC3CC3)[C@H](C(=O)c3ccc(O)cc31)[C@@H]2C` [Ethylketocyclazocine], the inhibition constant Ki at cloned mouse δ receptor came to 101 nM; at cloned rat μ receptor, 3.1 nM. Further, at MOP2 [2], the “Effect on forskolin-stimulated cAMP formation, MOP2” value (“Effect” for short) is reported as “no effect”.

On to `CN(C(=O)Cc1ccc(Cl)c(Cl)c1)C(CN1CCCC1)c1cccc(OCC(=O)O)c1` (centres unmarked) [ICI 204, 448], for which the results for the inhibitory constant (Ki) at cloned mouse κ receptor (setting [10]), at cloned mouse δ receptor (setting [11]) and at cloned rat μ receptor (setting [12]) were 0.71 nM, over 1000 nM and over 1000 nM, respectively.

For the molecule `CN1CC[C@]23CCCC[C@H]2[C@H]1Cc1ccc(O)cc13` [Levorphanol], the Ki is 6.5 nM on cloned mouse κ receptor; 5 nM at cloned mouse δ receptor; 187 nM in assay [3]; 4380 nM in assay [4]; 2.8 nM in [5]. Also, the “Effect” value on MOP2 [2] was “no effect”.

With `Oc1ccc2c3c1O[C@H]1c4oc5ccccc5c4C[C@@]4(O)[C@@H](C2)N(CC2CC2)CC[C@]314` [NTB], the Ki on cloned mouse κ receptor (setting [10]) is 13 nM; at cloned mouse δ receptor (setting [11]), 0.013 nM; at cloned rat μ receptor (setting [12]) it was 12 nM; in [3] (read-out: Potencies of Antagonist binding, Wild-type (Ki values in nM)), 0.04 nM; in assay [4] (read-out: Potencies of Antagonist binding, D128N mutant (Ki values in nM)), 0.07 nM; in [5] (read-out: Potencies of Antagonist binding, H278N mutant (Ki values in nM)) it was 0.03 nM. Further, the “Affinity of aspartate 95 mutant and wild-type delta receptors compared” value in assay [1] was “similar”.

Consider `CN1CC[C@]23c4c5ccc(O)c4O[C@H]2C(=O)C2(Cc4ccccc4C2)C[C@@]3(O)[C@H]1C5` [SIOM, 7-spiroindino-oxymorphone], for which the Ki was over 1000 nM on cloned mouse κ receptor (setting [10]); 33 nM on cloned rat μ receptor (setting [12]); 46 nM in assay [3] (read-out: Potencies of Agonists to Bind, Wild-type (Ki values in nM)); 1220 nM in assay [4] (read-out: Potencies of Agonists to Bind, D128N mutant (Ki values in nM)); 1.8 nM in [5] (read-out: Potencies of Agonists to Bind, H278N mutant (Ki values in nM)).

Turning to `C[C@@H](NC(=O)[C@@H](N)Cc1ccc(O)cc1)C(=O)NCC(=O)N(C)[C@@H](Cc1ccccc1)C(=O)NCCO` [[^3H]DAMGO], the “Specific binding of radioligand to MOP2” value on MOP2 [6] is recorded as “did not bind specifically”.

As a reminder, the Kd is the equilibrium constant for the complex coming apart. Lower therefore signals tighter binding. With `Oc1ccc2c3c1O[C@H]1c4[nH]c5ccccc5c4C[C@@]4(O)[C@@H](C2)N(CC2CC2)CC[C@]314` [[^3H]naltrindole], the Kd stood at 0.18 nM at cloned mouse δ receptor, 0.6 ± 0.2 nM in assay [3], 1.3 ± 0.6 nM in [4] and 0.2 ± 0.1 nM in assay [5]. Besides, at MOP2 [6], the “Specific binding of radioligand to MOP2” value was “did not bind specifically”. For the same molecule, the “Binding of radioligand to the kappa 1-74/delta65-372 chimera” value in [7] is on record as “potently bound”.

`CC(C)=CCN1CCC2(C)c3cc(O)ccc3CC1C2C` (centres unmarked) [^3H-pentazocine]: the “Specific binding of radioligand to MOP2” value at MOP2 [6] was “did not bind specifically”.

With `COc1ccc2c3c1O[C@H]1[C@@H](O)C=C[C@H]4[C@@H](C2)N(C)CC[C@@]341` [codeine], the Ki on cloned mouse κ receptor and at cloned mouse δ receptor was over 1000 nM in each case. Also, the “Effect” value at MOP2 [2] is listed as “no effect”.

As to `CC[C@H](C)[C@H](NC(=O)[C@H](C)NC(=O)[C@H](CC(N)=O)NC(=O)[C@H](CCCCN)NC(=O)[C@H](Cc1ccccc1)NC(=O)[C@H](CC(C)C)NC(=O)[C@@H](NC(=O)[C@@H](NC(=O)[C@H](CC(C)C)NC(=O)[C@@H]1CCCN1C(=O)[C@@H](NC(=O)[C@H](CCC(N)=O)NC(=O)[C@H](CO)NC(=O)[C@H](CCCCN)NC(=O)[C@H](CCC(=O)O)NC(=O)[C@H](CO)NC(=O)[C@@H](NC(=O)[C@H](CCSC)NC(=O)[C@H](Cc1ccccc1)NC(=O)CNC(=O)CN)[C@@H](C)O)[C@@H](C)O)C(C)C)[C@@H](C)O)C(=O)N[C@H](C(=O)N[C@@H](CCCCN)C(=O)N[C@@H](CC(N)=O)C(=O)N[C@@H](C)C(=O)N[C@@H](Cc1ccc(O)cc1)C(=O)N[C@@H](CCCCN)C(=O)N[C@@H](CCCCN)C(=O)NCC(=O)N[C@@H](CCC(=O)O)C(=O)O)[C@@H](C)CC` [des-Tyr^1-β-endorphin] (H-GGFMTSEKSQTPLVTLFKNAIIKNAYKKGE-OH; N-terminus and C-terminus assumed), the Ki at cloned mouse κ receptor (setting [10]), on cloned mouse δ receptor (setting [11]) and at cloned rat μ receptor (setting [12]) was over 1000 nM each time.

Consider `CCC(=O)C(CC(C)N(C)C)(c1ccccc1)c1ccccc1` (centres unmarked) [methadone], for which the “Effect” value at MOP2 [2] is “no effect”.

Consider `NC(=O)[C@@H]1CCCN1C(=O)[C@H](Cc1ccccc1)NC(=O)[C@@H]1CCCN1C(=O)[C@@H](N)Cc1ccc(O)cc1` [morphiceptin] (H-YPFP-NH2), for which the Ki is over 1000 nM on cloned mouse κ receptor, over 1000 nM at cloned mouse δ receptor, 10 to 100 nM at cloned rat μ receptor (Affinities for the cloned μ receptor) and 56 nM at cloned rat μ receptor (setting [13]).

For `CN1CC[C@]23c4c5ccc(O)c4O[C@H]2[C@@H](O)C=C[C@H]3[C@H]1C5` [morphine], the “Effect” value at MOP2 [2] was “no effect”.

As to `C=CCN1CC[C@]23c4c5ccc(O)c4O[C@H]2[C@@H](O)C=C[C@H]3[C@H]1C5` [nalorphine], the values for the Ki on cloned mouse κ receptor and at cloned rat μ receptor were 1.1 nM and 0.97 nM, respectively.

As for `Oc1ccc2c3c1O[C@H]1c4[nH]c5c(c4C[C@@]4(O)[C@@H](C2)N(CC2CC2)CC[C@]314)C[C@@]1(O)[C@H]2Cc3ccc(O)c4c3[C@@]1(CCN2CC1CC1)[C@H]5O4` [nor-BNI, nor-binaltorphimine], at cloned mouse κ receptor, the Ki came to 0.027 nM.

For `CC(C)=CCN1CCC2(C)c3cc(O)ccc3CC1C2C` (centres unmarked) [pentazocine], the Ki on cloned mouse δ receptor turned out to be 31 nM; at cloned rat μ receptor, 5.7 nM.

Regarding `COC(=O)/C=C/C(=O)N[C@@H]1CC[C@@]2(O)[C@H]3Cc4ccc(O)c5c4[C@@]2(CCN3CC2CC2)[C@H]1O5` [β-FNA, β-funaltrexamine], the Ki worked out at 2.8 nM on cloned mouse κ receptor (setting [10]), 48 nM on cloned mouse δ receptor (setting [11]), 0.33 nM on cloned rat μ receptor (setting [12]) and 0.29 nM in assay [8] (read-out: Binding potencies (Ki-nM) for the cloned human μ opioid receptor [^3H] DAMGO).

Take D-Ala^2-deltorphin II: the “Binding to the cloned human receptor (inhibition of [3H]DAMGO binding), words” value in assay [8] was “did not bind”.

For Dynorphin A (1–8), the “Binding to the κ/δ2eloop chimera” value in the assay with κ/δ2eloop chimera was “did not bind”.

For Dynorphin A (1–17), the “Binding to the κ/δ2eloop chimera” value in the assay on κ/δ2eloop chimera is given as “did not bind”.

Turning to pertussis toxin [PTX], the “Decrease of specific [3H]DAMGO labelling of the rat μ receptor” value in [9] was 42+/−5%.

With β-Endorphin (human), at MOP2 [2], the “Effect” value was “no effect”.
